The record followed here is ChEMBL document CHEMBL1121823, “A novel connector linkage applicable in prodrug design” (J Med Chem, 1981).

The structures appear in SMILES notation.

Type in all cases: ADME
Data set [1] can be described thus: Half-life in aqueous buffer (0.05 M bistris, pH 6.9) in the absence of trypsin was determined at 25 degree C. The conditions noted are these: aqueous buffer without trypsin.
A short description of data set [2]: Half-life in aqueous buffer (0.05 M bistris, pH 6.9) in the presence of trypsin (2.5 ug/ml) was determined at 25 degree C.
A short description of data set [3]: Half-life was determined. The conditions noted are these: human.

Take `CC(C)(C)OC(=O)NC(CCCCN)C(=O)Nc1ccc(COC(=O)Nc2ccc([N+](=O)[O-])cc2)cc1` (stereo not drawn): the half-life in data set [1] was 40 h; in data set [2], 11 min.
`NC(=O)OCc1ccc(N)cc1` yielded a half-life in data set [3] of 1.5 min.

The half-life is the time needed for the level to fall by half in the phase considered.
